In article PMC7822874, “Chemoprotective antimalarials identified through quantitative high-throughput screening of Plasmodium blood and liver stage parasites” (Scientific Reports, 2021):
Read-outs that look alike come from different tables or passages of the source.

What was measured:
[1] = tested on: Plasmodium falciparum Dd2 asexual blood stage parasites; assay: microbe, parasite or virus in culture; set-up: species or system Plasmodium falciparum Dd2 in human erythrocytes; single determination (one 11-point concentration-response curve); conditions: Plasmodium falciparum, DD2, Erythrocyte, 72 h
[2] = in vitro; conditions: human
[3] = HepG2-A16-CD81EGFP cells, uninfected

Row | Compound | AC50 ([1]; read-out: AC50) [nM] | viability at 48 h, 1 µM [2, 3] [%] | viability at 48 h, 3 µM [2, 3] [%] | also measured
1 | CCC(O)(CC)C(=O)NN(C(=O)Nc1csc2c1CCCC2)c1ccccc1 [MLS000554206-01] | 2990 | 98 | 95 | –
2 | CN(C)c1cc[n+](Cc2ccccc2)cc1 [MLS000070144-01] | 10600 | – | – | viability at 66 h [2, 3]: 96.5%
3 | CCCCNc1nc2sc3c(c2c(=O)n1-c1cccc(Cl)c1)CCN(C)C3 [MLS000762857-01] | 9440 | 106 | – | viability at 48 h [2, 3]: 106%
4 | COc1ccccc1N1CCN(C(=O)c2ccc3c(=O)n(Cc4ccc5c(c4)OCO5)c(=O)[nH]c3c2)CC1 [MLS001028591-01] | 2990 | – | – | viability at 66 h [2, 3]: 94%
5 | O=C(/C=C/c1ccco1)NC(S)=Nc1ccccc1N1CCCC1 [MLS000663784-01] | 2660 | 107 | – | viability at 48 h [2, 3]: 107%
6 | CC(NCc1ccc(Cl)cc1Cl)C(O)c1ccccc1 (centres unmarked) [MLS000582862-01] | 4730 | – | – | viability at 48 h, 1 µM [2]: 120%; viability at 48 h, 3 µM [2]: 104%
7 | O=C(Nc1ccc(N2CCCCC2)c(Cl)c1)c1nnc[nH]1 [MLS000035389-01] | 4730 | 101 | 99 | –
8 | CCCNC(=O)c1ccc(N2CCC3(CC2)CC(c2cccc(Br)c2)=NO3)c(NC(=O)c2ccco2)c1 [MLS001074397-01] | 2990 | 118 | 104 | –
9 | Cc1cccc(NC2=C(NC(=O)c3ccccc3)C(=O)c3ccccc3C2=O)c1 [MLS000392330-01] | 944 | 98 | 95 | –
10 | CCN(CC)CCN1C(=O)c2ccccc2NC1c1ccc(C)cc1 (centres unmarked) [MLS000558946-01] | 2990 | 98 | 104 | –
11 | CCOC(=O)c1c(CN(C)C)n(-c2ccc(C)cc2)c2cc(Br)c(O)cc12 [MLS000705141-01] | 4220 | 101 | 101 | –
12 | CCOC(=O)C1=C(C)N=c2sc(=Cc3ccc(OCC(=O)O)cc3)c(=O)n2C1c1cc(OC)c(OC)c(OC)c1 (centres unmarked) [MLS001178475-01] | 1880 | 98 | – | viability at 48 h [2, 3]: 98%
13 | CCOC(=O)CC(=O)CSc1nc2ccccc2c(=O)n1-c1ccc(C(=O)N2CCOCC2)cc1 [MLS000095558-01] | 13300 | 87 | 87 | –
14 | CCOc1ccccc1C1c2[nH]c3ccccc3c2C[C@H]2C(=O)N(C3CCN(Cc4ccccc4)CC3)CC(=O)N12 (some centres unmarked) [MLS001215140-01] | 2370 | 106 | 101 | –
15 | CC(C)N1C(=S)N(Cc2ccco2)C(=O)C1CC(=O)Nc1ccccc1 (centres unmarked) [MLS000729199-01] | 1680 | 99 | 109 | –
16 | Cc1nc(N2CCC(C)CC2)c2c(C)c(C(=O)Nc3ccc(C(F)(F)F)cc3)sc2n1 [MLS000682669-01] | 7500 | 108 | 99 | –
17 | CCn1c(SCC(=O)NCCc2ccccc2)nc2sc3c(c2c1=O)CCN(C)C3 [MLS000332196-01] | 5310 | 96 | 87 | –
18 | O=c1c(=Cc2ccco2)sc2n1CN(c1cccc(Br)c1)CN=2 [MLS000535198-01] | 9440 | 103 | 103 | –
19 | Cc1cc(N2CCN(C)CC2)nc2ccc(NC(=O)c3ccc(Br)o3)cc12 [MLS000086536-01] | 6680 | 104 | 104 | –
20 | COc1cc(O)c(C(CCN2CCCC(C)C2)c2ccc(N(C)C)cc2)c(OC)c1 (centres unmarked) [MLS000879516-01] | 1680 | 110 | – | viability at 48 h [2, 3]: 110%
21 | OC(CN1CCN(c2ccccn2)CC1)Cn1c2ccc(Cl)cc2c2cc(Cl)ccc21 (centres unmarked) [MLS000529159-01] | 2990 | – | – | viability at 66 h [2, 3]: 102%
22 | CC(C)C(=O)OCC(=O)[C@@]12O[C@H](C3CCCCC3)O[C@@H]1C[C@H]1[C@@H]3CCC4=CC(=O)C=C[C@]4(C)[C@H]3[C@@H](O)C[C@@]12C [NCGC00167484-01] | 2660 | 97 | 94 | –
23 | COc1cc(C(=O)Nc2ccc3nc(N4CCN(C)CC4)cc(C)c3c2)cc(OC)c1OC [MLS001197839-01] | 3350 | 101 | 103 | –

Row | Compound | AC50 ([1]; read-out: AC50) [nM] | viability at 48 h, 1 µM [2, 3] [%] | viability at 48 h, 3 µM [2, 3] [%] | also measured
24 | Cc1ccc(-n2c(C)cc(C(=O)OCC(=O)N(C)C3CCS(=O)(=O)C3)c2C)cc1 (centres unmarked) [MLS000098265-01] | 4730 | – | – | viability at 66 h [2, 3]: 101%
25 | COC(=O)c1c(-c2c(Cl)cccc2Cl)noc1NC(=O)NN1CCCCC1 [MLS000861266-01] | 2370 | 93 | 87 | –
26 | Cc1cccn2c(=O)c3cc(C(=O)NC4CCCC4)c(=N)n(CCc4ccccc4)c3nc12 [MLS001221260-01] | 1880 | 95 | 92 | –
27 | CC(C)Oc1ccc2c(c1)OC(c1ccccc1)(C(F)(F)F)NC2=O (centres unmarked) [MLS000392812-01] | 2660 | 105 | 98 | –
28 | CCn1c2c(c(=N)c3ccccc31)CCC2 [MLS001047391-01] | 6680 | – | – | viability at 66 h [2, 3]: 97.3%
29 | CCc1cc2c(=O)c(-c3cnn(-c4ccccc4)c3)c(C)oc2c(CN2CCCCC2)c1O [MLS000530719-01] | 1330 | 105 | 105 | –
30 | Cc1cc(C)cc(Nc2cc(C)nc3nc(C)nn23)c1 [MLS000116612-01] | 5310 | 112 | – | viability at 48 h [2, 3]: 112%
31 | Oc1ccc(Nc2ccnc3cc(Cl)ccc23)cc1 [MLS000737975-01] | 1680 | – | – | viability at 66 h [2, 3]: 96.9%
32 | O=C(Nc1c(C(=O)c2ccccc2)oc2ccccc12)c1cc(-c2ccccc2O)n[nH]1 [MLS000331861-01] | 2110 | 100 | 99 | –
33 | Cc1cn(-c2cc(C(=O)Nc3ccc(C)c(NC(=O)C(=O)c4c[nH]c5ccccc45)c3)cc(C(F)(F)F)c2)cn1 [MLS003105973-01] | 2110 | 112 | – | viability at 48 h [2, 3]: 112%
34 | COC(=O)[C@]1(C)CCC[C@@]2(C)C3CC[C@@]4(C)C[C@]3(CCC21)CC(=O)N4Cc1ccc(OC)cc1 (some centres unmarked) [MLS002207414-01] | 3760 | – | – | viability at 66 h [2, 3]: 96.7%
35 | OC(CNC1CCCCCC1)COc1cccc2ccccc12 (centres unmarked) [MLS001174634-01] | 1880 | 103 | 98 | –
36 | CCN1CCN(Cc2ccc(NC(=O)c3cc(NC(=O)c4nccnc4N)cc(OC)c3)cc2C(F)(F)F)CC1 [MLS000911568-01] | 4730 | 89 | 87 | –
37 | Cc1ccc(Cl)cc1N1CCN(Cc2cc3c(cc2O)CCC3)CC1 [MLS000572148-01] | 188 | 103 | 99 | –
38 | Oc1ccc(Br)cc1-c1cc(-c2ccc(Cl)cc2)[nH]n1 [MLS000551526-01] | 2660 | 88 | 87 | –
39 | CN(C)c1cc[n+](CC(=O)c2ccc(Br)cc2)cc1 [MLS000678949-01] | 7500 | – | – | viability at 66 h [2, 3]: 103%
40 | O=C(CC[S+](=O)([O-])c1cc(Br)cc2c1N(C(=O)C1CC1)CC2)Nc1ccc(Br)cc1F [NCGC00107188-01] | – | – | – | AC50 [1]: 3350 nM; viability at 66 h [2, 3]: 94%
41 | Cc1c(O)c(CN2CCCC2)cc2c1oc(=O)c1ccccc12 [MLS000081529-01] | 2660 | 108 | 102 | –
42 | O=C1C2=C(Nc3ccccc3SC2c2ccco2)c2ccccc21 (centres unmarked) [MLS000108310-01] | 4730 | 110 | 99 | –
43 | O=C(CCl)N(c1ccccc1)c1c[nH]c2ccccc12 [MLS000554103-01] | 2110 | 100 | 100 | –
44 | CCCn1c2c(c(=N)c3c1CCC3)CCCC2 [MLS000702605-01] | 10600 | – | – | viability at 66 h [2, 3]: 93.8%
45 | N#Cc1cc(C(=O)c2cc(Br)ccc2O)cn(C2CCCCC2)c1=O [MLS000565115-01] | 668 | 90 | 84 | –
